Assay results from publication PMC7489893, “A small molecule inhibitor of HER3: a proof-of-concept study” (Biochemical Journal, 2020).
Read-outs that look alike come from different tables or passages of the source.

Assays:
HER3 [1] = target: T1, HER3 (Homo sapiens, UniProt P21860); test: biochemical; set-up: gene ERBB3; HER3 kinase domain (residues G684-D1020); differential scanning fluorimetry with SYPRO Orange, HER3 Tm shift, single-compound deconvolution screen; details: read-out: ΔTm (°C) HER3 deconvolution screen
T1 sequence (P21860 684-1020): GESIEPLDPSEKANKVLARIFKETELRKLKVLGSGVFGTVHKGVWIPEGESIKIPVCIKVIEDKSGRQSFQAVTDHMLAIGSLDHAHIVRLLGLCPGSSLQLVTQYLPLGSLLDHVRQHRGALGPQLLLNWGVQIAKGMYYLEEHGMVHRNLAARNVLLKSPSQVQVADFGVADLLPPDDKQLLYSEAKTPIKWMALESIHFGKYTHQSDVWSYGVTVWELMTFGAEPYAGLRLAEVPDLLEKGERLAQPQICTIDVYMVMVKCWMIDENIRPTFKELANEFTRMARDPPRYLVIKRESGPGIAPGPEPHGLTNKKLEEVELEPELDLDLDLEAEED
Procedure: Thermal shift assays were performed using a QuantStudio7 Flex Real-Time PCR instrument (Applied Biosystems, ThermoFischer Scientific) scanning from 15°C to 75°C in 0.5°C increments every 30 s after an initial incubation at 15°C for 1 min. Fluorescence was measured at the end of each 30 s period with an excitation wavelength of 470 nm and an emission wavelength of 620 nm. HER3 and HER2 kinase domain recombinant proteins were diluted in 50 mM Hepes pH 7.5, 150 mM NaCl, 5% glycerol and 1 mM DTT to a concentration of 1.5 μM and then incubated with the indicated concentration of compounds in a total reaction volume of 10 μl, with a final concentration of 2.5X SYPRO Orange (ThermoFisher Scientific) as fluorescence probe. […] Having established a robust screening platform, a total of 107 008 small molecule compounds were screened as mixtures of four compounds per well (a total of 26 752 wells) at 30 μM each in a primary library screen. […] In the second step of screening, hit pools of compounds were arrayed as individual compounds and 3119 compounds (2835 hits plus 284 compounds from failed wells from the primary screen) were assessed at 30 μM, using the same thermal shift assay settings as for the primary screen (0.3% DMSO as neutral controls reflecting the single compound use, 200 μM ATP/10 mM MgCl2 as positive controls) applying again a cut-off value of ΔTm > 3°C (Figure 1C). […]

HER3 [2] = target: T1, HER3; test: biochemical; set-up: gene ERBB3; HER3 kinase domain (residues G684-D1020); differential scanning fluorimetry with SYPRO Orange, shift in HER3 kinase domain Tm
Procedure: Thermal shift assays were performed using a QuantStudio7 Flex Real-Time PCR instrument (Applied Biosystems, ThermoFischer Scientific) scanning from 15°C to 75°C in 0.5°C increments every 30 s after an initial incubation at 15°C for 1 min. Fluorescence was measured at the end of each 30 s period with an excitation wavelength of 470 nm and an emission wavelength of 620 nm. HER3 and HER2 kinase domain recombinant proteins were diluted in 50 mM Hepes pH 7.5, 150 mM NaCl, 5% glycerol and 1 mM DTT to a concentration of 1.5 μM and then incubated with the indicated concentration of compounds in a total reaction volume of 10 μl, with a final concentration of 2.5X SYPRO Orange (ThermoFisher Scientific) as fluorescence probe. […] Hit compounds stabilising HER3 were then evaluated for their relative binding affinity in a dose–response thermal shift assay at 1, 3, 10 and 30 μM (Supplementary Figure S2C). […] The proof-of-concept compound was confirmed as a HER3 binder inducing a shift in HER3 Tm of over 3°C with the dose–response indicating an estimated IC50 of 4 μM (Figure 1D and Supplementary Table S2). Near neighbours of those 109 hits were selected and 663 new compounds were screened in duplicate for their relative potency at 1, 3, 10 and 30 μM by thermal shift assay. From those, 446 compounds passed the selection criteria, i.e. induced shift in HER3 Tm > 3°C below 10 μM (data not shown). Figure 1. A differential scanning fluorimetry (DSF) assay compound screen identifies 428 HER3-preferential binders from a 107 008 compound library. (A) Overview of the screening strategy and hit rate for each step of the screening cascade. […] ApoHER3 (HER3 kinase domain with no ligand) was used as a control for all DSF analyses (mean of ApoHER3 Tm across the plates set at ΔTm = 0°C is indicated by the dash green line) and ΔTm values were calculated for each pool of compounds tested at 30 μM each (N = 1). Cut-off values of ΔTm>3°C and ΔTm < −5°C were used to designate hits (shown as dashed pink lines). The pool of compounds containing proof-of-concept compound AC3573 is circled. Gaps indicate the rare plate failures (three plates). Compounds from these plates were retested during the deconvolution screen. (C) Correlation of shift in HER3 Tm value induced by deconvoluted pool compounds tested at 30 μM between the two repeats of deconvolution screening. AC3573 and its three pool compounds are highlighted. (D) Dose-dependent analysis of thermal shifts induced by AC3573 compound tested at 1, 3, 10 and 30 μM in the HER3 potency screen. The change in HER3 Tm value (ΔTm), compared with ApoHER3 control, is reported as mean ± SD from N = 4 independent experiments. […]

HER2 kinase domain = target: T2, HER2 kinase domain (Homo sapiens, UniProt P04626); test: biochemical; set-up: in vitro HER2 kinase inhibition assay at the Km for ATP (ThermoFisher); details: at Km for ATP; read-out: Activity against HER2, IC50
T2 construct: gene ERBB2; kinase domain, ThermoFisher in vitro kinase assay
Source text: Since the readout for HER3 function in cells required HER2 activity, it was critical to confirm HER2 inactivity of these compounds.

HER3 [3] = target: T1, HER3; test: DSF dose-response thermal shift; HDX-MS binding site mapping; set-up: gene ERBB3
HER2 = target: T3, HER2 (Homo sapiens, UniProt P04626, M706A/M712L/Q711L); test: biochemical; set-up: differential scanning fluorimetry with SYPRO Orange, shift in HER2 kinase domain Tm (counter screen); details: counter screen
T3 construct: gene ERBB2; HER2 kinase domain (S703-G1029)
Procedure: Thermal shift assays were performed using a QuantStudio7 Flex Real-Time PCR instrument (Applied Biosystems, ThermoFischer Scientific) scanning from 15°C to 75°C in 0.5°C increments every 30 s after an initial incubation at 15°C for 1 min. Fluorescence was measured at the end of each 30 s period with an excitation wavelength of 470 nm and an emission wavelength of 620 nm. HER3 and HER2 kinase domain recombinant proteins were diluted in 50 mM Hepes pH 7.5, 150 mM NaCl, 5% glycerol and 1 mM DTT to a concentration of 1.5 μM and then incubated with the indicated concentration of compounds in a total reaction volume of 10 μl, with a final concentration of 2.5X SYPRO Orange (ThermoFisher Scientific) as fluorescence probe. […] We sought to identify compounds binding specifically to HER3. Since HER2 and HER3 are highly homologous EGFR family members, we took forward the 555 compounds identified as stabilising HER3, to be counter screened for HER2 binding. […] Compounds binding to HER2, i.e. inducing a shift in HER2 Tm over 2°C (3×SD) compared with the DMSO neutral control were disregarded (Supplementary Figure S2D). […] A differential scanning fluorimetry (DSF) assay compound screen identifies 428 HER3-preferential binders from a 107 008 compound library. (A) Overview of the screening strategy and hit rate for each step of the screening cascade. […] ApoHER3 (HER3 kinase domain with no ligand) was used as a control for all DSF analyses (mean of ApoHER3 Tm across the plates set at ΔTm = 0°C is indicated by the dash green line) and ΔTm values were calculated for each pool of compounds tested at 30 μM each (N = 1). Cut-off values of ΔTm>3°C and ΔTm < −5°C were used to designate hits (shown as dashed pink lines). The pool of compounds containing proof-of-concept compound AC3573 is circled. Gaps indicate the rare plate failures (three plates). Compounds from these plates were retested during the deconvolution screen. (C) Correlation of shift in HER3 Tm value induced by deconvoluted pool compounds tested at 30 μM between the two repeats of deconvolution screening. AC3573 and its three pool compounds are highlighted. (D) Dose-dependent analysis of thermal shifts induced by AC3573 compound tested at 1, 3, 10 and 30 μM in the HER3 potency screen. The change in HER3 Tm value (ΔTm), compared with ApoHER3 control, is reported as mean ± SD from N = 4 independent experiments. Representative thermal denaturation profiles of recombinant HER3 kinase domain, in the presence of 0.3% DMSO (Apo control), ATP/MgCl2 (ATP control) or AC3573 tested at 1, 3, 10 and 30 μM. (E) Dose-dependent analysis of thermal shifts induced by AC3573 compound tested at 1, 3, 10 and 30 μM in the HER2 counter screen. […]

[4] = read-out: ΔTm (°C) HER3 potency screen

For `NS(=O)(=O)c1cccc(Nc2cc(-c3c[nH]c4ccccc34)ncn2)c1` [AC3573], the ΔTm at 30 µM (HER3 [1]) was 3.65 ± 0.25 °C, the ΔTm at 3 µM (HER3 [2]; 3 uM, potency screen) was 1.27 ± 0.51 °C and the ΔTm at 30 µM (HER3 [2]; 30 uM, potency screen) was 3.2 ± 0.24 °C. For the same molecule, the ΔTm at 1 µM (HER3 [2]; [4]) was -1.34 ± 0.48 °C, the ΔTm at 10 µM (HER3 [2]; [4]) was 3.28 ± 0.62 °C and the IC50 (HER2 kinase domain) was greater than 10 µM. The IC50 (HER3 [3]) was roughly 4 µM, the ΔTm at 1 µM (HER2; 1 uM) was -0.75 ± 0.18 °C and the ΔTm at 3 µM (HER2; 3 uM) was 0.48 ± 0.52 °C. For the same molecule, the ΔTm at 10 µM (HER2; 10 uM) was 1.56 ± 0.26 °C and the ΔTm at 30 µM (HER2; 30 uM) was 1.95 ± 0.25 °C.
